Source: ChEMBL document CHEMBL4002573, “New insights into the SAR and drug combination synergy of 2-(quinolin-4-yloxy)acetamides against Mycobacterium tuberculosis” (Eur J Med Chem, 2017)
In brackets after ≈: the same amount, converted by molar mass.

Tests used:
[1] = system: Mycobacterium tuberculosis; assay: microbe, parasite or virus in culture; conditions: H37Rv, 168 h
Description: Antimycobacterial activity against Mycobacterium tuberculosis H37Rv after 7 days by resazurin reduction microplate assay

[2] = Thermodynamic solubility of the compound in 0.1N HCl at pH 1.5 after 24 hrs by HPLC method; format: physicochemical; conditions: read-out: Therm_solubility
[3] = Half life in human liver S9 fraction at 2 uM by HPLC-MS/MS analysis; format: ADME, tissue-based
[4] = Cytotoxicity against mouse N9 cells assessed as viability at 10 uM after 72 hrs by MTT assay relative to control; format: cell-based; conditions: read-out: Activity
[5] = Cytotoxicity against African green monkey Vero cells assessed as viability at 10 uM after 72 hrs by MTT assay relative to control; format: cell-based; conditions: chlorocebus sabaeus, read-out: Activity
[6] = Kinetic solubility in water at pH 5.8; format: physicochemical; conditions: read-out: Kinetic_solubility
[7] = Cytotoxicity against human HepG2 cells assessed as viability at 10 uM after 72 hrs by MTT assay relative to control; format: cell-based; conditions: read-out: Activity
[8] = system: Mycobacterium tuberculosis; assay: microbe, parasite or virus in culture; conditions: CDCT-4 (1105/09), 168 h
Description: Antimycobacterial activity against Mycobacterium tuberculosis CDCT-4 (1105/09) clinical isolate after 7 days by resazurin reduction microplate assay

[9] = Intrinsic clearance in human liver S9 fraction at 2 uM by HPLC-MS/MS analysis; format: ADME, tissue-based
[10] = Cytotoxicity against human HaCaT cells assessed as viability at 10 uM after 72 hrs by MTT assay relative to control; format: cell-based; conditions: read-out: Activity
[11] = Kinetic solubility in PBS at pH 7.4; format: physicochemical; conditions: read-out: Kinetic_solubility
[12] = Cytotoxicity against mouse RAW264.7 cells assessed as viability at 10 uM after 72 hrs by MTT assay relative to control; format: cell-based; conditions: read-out: Activity
[13] = system: Mycobacterium tuberculosis; assay: Bactericidal activity against Mycobacterium tuberculosis H37Rv infected in mouse RAW264.7 cells assessed as bacterial colony formation at 5 uM after 5 days (reference value: 4.1 to 4.73 log10CU); format: functional
[14] = Permeability of the compound at 1 uM […] by PAMPA; format: physicochemical; conditions: read-out: permeability
[15] = system: Mycobacterium tuberculosis; assay: microbe, parasite or virus in culture; conditions: PE-003, 168 h
Description: Antimycobacterial activity against Mycobacterium tuberculosis PE-003 clinical isolate after 7 days by resazurin reduction microplate assay

[16] = Thermodynamic solubility of the compound in acetate buffer at pH 4 after 24 hrs by HPLC method; format: physicochemical; conditions: read-out: Therm_solubility

`COc1ccc2nc(C)cc(OCC(=O)N[C@H]3CCCc4ccccc43)c2c1` showed an MIC [1] of 1.66 µM.

With `COc1ccccc1NC(=O)COc1cc(C)nc2ccc(Cl)cc12` the MIC [1] was 1.75 µM.

`COc1ccc2nc(C)c(Cc3ccccc3)c(OCC(=O)Nc3ccccc3OC)c2c1` gave an MIC [1] of over 22.6 µM.

Compound `CCc1cc(OCC(=O)Nc2ccccc2OC)c2cc(OC)ccc2n1` has an MIC [1] of 0.86 µM.

In the case of `COc1ccc2nc(C)cc(OCC(=O)N(c3ccccc3)c3ccccc3)c2c1`, the MIC [1] is reported as over 25.1 µM.

For `COc1ccc2nc(C)cc(OCC(=O)Nc3ccc(C)c(C)c3)c2c1`, the solubility thermodynamic at 24 h [2] was 80 µM (≈ 28 µg/mL), the half-life at 2 µM [3] was 14.2 min and the viability at 72 h, 10 µM [4] was 105%. For the same compound, the viability at 72 h, 10 µM [5] was 85%, the solubility kinetic [6] was 10.4 µM (≈ 3.64 µg/mL) and the viability at 72 h, 10 µM [7] was 71%. The MIC [8] was 0.11 µM (≈ 0.0385 µg/mL), the CLhep predicted at 2 µM [9] was 16.2 mL/min/kg and the viability at 72 h, 10 µM [10] was 94%. It also gave an MIC [1] of 0.11 µM, a solubility kinetic [11] of 10.7 µM (≈ 3.75 µg/mL) and a viability at 72 h, 10 µM [12] of 88%. The Activity [13] was 3.35 log10CFU, the Papp at 1 µM [14] was 5.9 ×10⁻⁶ cm/s and the MIC [15] was 0.04 µM (≈ 0.014 µg/mL). For the same compound, the solubility thermodynamic at 24 h [16] was 410 µM (≈ 144 µg/mL).

For `CCc1ccc(NC(=O)COc2cc(C)nc3ccc(OC)cc23)cc1`, the solubility thermodynamic at 24 h [2] was 790 µM (≈ 277 µg/mL), the half-life at 2 µM [3] was 12.8 min and the viability at 72 h, 10 µM [4] was 112%. It also gave a viability at 72 h, 10 µM [5] of 80%, a solubility kinetic [6] of 5.2 µM (≈ 1.82 µg/mL) and a viability at 72 h, 10 µM [7] of 75%. The MIC [8] was under 0.06 µM, the CLhep predicted at 2 µM [9] was 16.6 mL/min/kg and the viability at 72 h, 10 µM [10] was 96%. The MIC [1] was 0.06 µM, the solubility kinetic [11] was 3.8 µM (≈ 1.33 µg/mL) and the viability at 72 h, 10 µM [12] was 91%. The Activity [13] was 2.81 log10CFU, the MIC [15] was 0.006 µM (≈ 0.0021 µg/mL) and the solubility thermodynamic at 24 h [16] was 430 µM (≈ 151 µg/mL).

For `COc1ccc2nc(C)cc(OCC(=O)Nc3ccc4c(c3)CCC4)c2c1`, the solubility thermodynamic at 24 h [2] was 240 µM (≈ 87 µg/mL), the half-life at 2 µM [3] was 11.7 min and the viability at 72 h, 10 µM [4] was 111%. It also gave a viability at 72 h, 10 µM [5] of 97%, a solubility kinetic [6] of 2.8 µM (≈ 1.01 µg/mL) and a viability at 72 h, 10 µM [7] of 95%. For the same compound, the MIC [8] was under 0.05 µM, the CLhep predicted at 2 µM [9] was 16.9 mL/min/kg and the viability at 72 h, 10 µM [10] was 99%. It also gave an MIC [1] of 0.05 µM, a solubility kinetic [11] of 2.8 µM (≈ 1.01 µg/mL) and a viability at 72 h, 10 µM [12] of 88%. For the same compound, the Activity [13] was 3.54 log10CFU, the Papp at 1 µM [14] was 13.1 ×10⁻⁶ cm/s and the MIC [15] was 0.005 µM (≈ 0.00181 µg/mL). For the same compound, the solubility thermodynamic at 24 h [16] was 120 µM (≈ 43.5 µg/mL).

In the case of `COc1ccc2nc(C)cc(OCc3ccc4ccccc4c3)c2c1`, the MIC [1] is reported as 1.9 µM.

Work on `COc1ccc2nc(C)cc(OCC(=O)Nc3cccc4c3CCCC4)c2c1` yielded an MIC [1] of 0.83 µM.

In the case of `CC[C@@H](CO)NCCN[C@@H](CC)CO` [ETHAMBUTOL], the MIC [1] is reported as 2.5 to 5 µg/mL.

`CCc1cc(C(N)=S)ccn1` [ETHIONAMIDE] showed an MIC [8] of 11.3 µM (≈ 1.88 µg/mL), an MIC [1] of 2.5 µg/mL and an MIC [15] of 61.2 µM (≈ 10.2 µg/mL).

In the case of `NNC(=O)c1ccncc1` [ISONIAZID], the MIC [8] is reported as over 70 µM, the MIC [1] is reported as 0.16 to 1.46 µM and the Activity [13] is reported as 2.44 log10CFU. For the same compound, the MIC [15] was over 70 µM.

In the case of `COc1c(N2C[C@@H]3CCCN[C@@H]3C2)c(F)cc2c(=O)c(C(=O)O)cn(C3CC3)c12` [MOXIFLOXACIN], the MIC [1] is reported as 0.075 µg/mL.

`CO[C@H]1/C=C/O[C@@]2(C)Oc3c(C)c(O)c4c(O)c(c(/C=N/N5CCN(C)CC5)c(O)c4c3C2=O)NC(=O)/C(C)=C\C=C\[C@H](C)[C@H](O)[C@@H](C)[C@@H](O)[C@@H](C)[C@H](OC(C)=O)[C@@H]1C` [RIFAMPIN] gave an MIC [8] of over 100 µM, an MIC [1] of 0.038 µg/mL and an Activity [13] of 2.44 log10CFU.

For `CN[C@@H]1[C@H](O[C@H]2[C@H](O[C@H]3[C@H](O)[C@@H](O)[C@H](N=C(N)N)[C@@H](O)[C@@H]3N=C(N)N)O[C@@H](C)[C@]2(O)C=O)O[C@@H](CO)[C@H](O)[C@H]1O` [STREPTOMYCIN], the MIC [1] was 0.31 µg/mL.
